Consider one compound from US20100098654A1.

The subject of assay [1] is human neuroblastoma cells NXS2. In words: NXS2 xenografted mice, survival. The class given is in vivo. Particulars: NXS2 in A/J mice. The protocol: Xenograft tumors were established in immunocompetent A/J mice by injecting […] neuroblastoma cells, NXS2, in the adrenal gland.
The immunocompetent mice were injected with another […] NB cell, NXS2 of 5×10^4 cells or 5×10^5 cells in the left adrenal gland. Tumors were allowed to grow for 2 days and reached the average volume of approximately 200 mm^3. […] Control group received HEPES-buffered saline. Survival time was used as the criteria for determining treatment efficacy.

Assay [2] relates to human neuroblastoma cells (HTLA-230). The assay is described as follows: Pseudometastatic human neuroblastoma (HTLA-230) xenografted mice, survival. The assay is classed as in vivo. The conditions noted are these: HTLA-230 i.v. in nude mice, 10 mg/kg q2d×5. As to the method:
Xenografts were established in mice by injecting human neuroblastoma cells (HTLA-230) intravenously at zero time point.
Four-week-old female athymic nude (nu/nu) mice were purchased from Harlan Laboratories (Harlan Italy-S.Pietro al Natisone, UD). Eight mice/group were injected with the human NB cell line, HTLA-230 (3.5×10^6 cells in 200 μl of HEPES-buffered saline) in the tail vein (i.v.) on day 0. The mice were then randomly assigned to each test group (8 mice per group). […] Control group received HEPES-buffered saline. The mice were monitored routinely for weight loss. Survival times were used as the criteria for determining treatment efficacy.

Assay [3] deals with human neuroblastoma cells (GI-LI-N). In words: Orthotopic human neuroblastoma (GI-LI-N) xenografted mice. The class given is in vivo, mouse (human tumor xenograft). The protocol: Xenograft tumors were established in mice by injecting human neuroblastoma cells (GI-LI-N) in the adrenal gland.
Five-week-old female athymic nude (nu/nu) mice were randomly assigned to each test group (8 mice per group). Eight mice/group were anaesthetised and injected with the human NB cell line, GI-LI-N (1×10^6 cells in 15 μl of HEPES buffer), after laparatomy, in the capsule of the left adrenal gland. Mice were monitored at least two times weekly for evidence of tumor development, quantification of tumor size, and evidence of tumor-associated morbidity. […] Control group received HEPES-buffered saline. The body weight and general physical status of the animals was observed daily and any mouse was terminated when a tumor reached 1000-1200 mm^3. Survival time was used as the criteria for determining treatment efficacy.
Tumors were removed from orthotopic neuroblastoma-bearing mice at day 50. Tumor sections were immunostained for NB84 as a neuroblastoma cell marker, and Ki-67 as a tumor cell proliferation marker. Cell nuclei were stained with DAPI.
Control group received HEPES-buffered saline.
On the technique in general: In xenograft studies the graft and the host belong to different species.

Setting [4] is: GI-LI-N orthotopic (Example 27), 10 mg/kg q2d×5.

The structures appear in SMILES notation.

Consider `CCc1c2c(nc3ccc(OC(=O)N4CCC(N5CCCCC5)CC4)cc13)-c1cc3c(c(=O)n1C2)COC(=O)[C@]3(O)CC` [CPT-11], for which the mice surviving entry in assay [1] (10 mg/kg/dose q2d×5) was “None”; in assay [1] (MTD (40 mg/kg) q2d×5) it was “None”; in assay [2], “None”; in assay [3] (setting [4]), “None”; in assay [3] (GI-LI-N orthotopic (Example 30), 10 mg/kg/dose day 21, 23, 25, 27, 29) it was “None”. The “time by which animals died” value is on record as no more than 85 days in assay [2] (from the cancer injection); no more than 80 days in assay [3] (setting [4]); no more than 80 days in assay [3] (GI-LI-N orthotopic (Example 30), 10 mg/kg/dose). The “effect on survival rate” value in assay [3] (GI-LI-N orthotopic (Example 30), at MTD (40 mg/kg)) was “slightly improved survival rate”.
